Earlier results, collected in patent publication US20070099940A1, “Pth agonists” (priority 2004, published 2007).

Tested on: fracture incidence
Conditions: daily subcutaneous injection for up to 2 years, postmenopausal women

Compound: CC[C@H](C)[C@H](NC(=O)[C@H](CCC(=O)O)NC(=O)[C@H](CO)NC(=O)[C@@H](NC(=O)[C@@H](N)CO)C(C)C)C(=O)N[C@@H](CCC(N)=O)C(=O)N[C@@H](CC(C)C)C(=O)N[C@@H](CCSC)C(=O)N[C@@H](Cc1cnc[nH]1)C(=O)N[C@@H](CC(N)=O)C(=O)N[C@@H](CC(C)C)C(=O)NCC(=O)N[C@@H](CCCCN)C(=O)N[C@@H](Cc1cnc[nH]1)C(=O)N[C@@H](CC(C)C)C(=O)N[C@@H](CC(N)=O)C(=O)N[C@@H](CO)C(=O)N[C@@H](CCSC)C(=O)N[C@@H](CCC(=O)O)C(=O)N[C@@H](CCCN=C(N)N)C(=O)N[C@H](C(=O)N[C@@H](CCC(=O)O)C(=O)N[C@@H](Cc1c[nH]c2ccccc12)C(=O)N[C@@H](CC(C)C)C(=O)N[C@@H](CCCN=C(N)N)C(=O)N[C@@H](CCCCN)C(=O)N[C@@H](CCCCN)C(=O)N[C@@H](CC(C)C)C(=O)N[C@@H](CCC(N)=O)C(=O)N[C@@H](CC(=O)O)C(=O)N[C@H](C(=O)N[C@@H](Cc1cnc[nH]1)C(=O)N[C@@H](CC(N)=O)C(=O)N[C@@H](Cc1ccccc1)C(=O)O)C(C)C)C(C)C [PTH(1-34)]
- reduction of fracture incidence at non-vertebral sites: 40%
- reduction of fracture incidence at the spine: 65%
